Measurements from the NIST ThermoML archive (doi:10.1021/acs.jced.8b00349).

Assay: mn = molality of the nth substance listed, in mol/kg
Conditions: 101 kPa, Liquid; for viscosity: Falling or rolling sphere viscometry; for speed of sound: Frequency=3 MHz, Single path-length method; for mass density: Vibrating tube method

C[n+]1ccn(CCCCCn2cc[n+](C)c2)c1.[Br-].[Br-] + O
Conditions	mass density [kg/m3]	speed of sound [m/s]	viscosity [mPa·s]
293.15 K, m1 = 0.03341	1002.35	1488.3	1.021
293.15 K, m1 = 0.04614	1003.89	1490.3	1.027
293.15 K, m1 = 0.05646	1005.11	1491.6	1.032
293.15 K, m1 = 0.06717	1006.38	1493.3	1.037
293.15 K, m1 = 0.0777	1007.58	1494.8	1.042
293.15 K, m1 = 0.08857	1008.85	1496.4	1.047
293.15 K, m1 = 0.09671	1009.75	1497.3	1.05
298.15 K, m1 = 0.03341	1001.16	1501.9	0.908
298.15 K, m1 = 0.04614	1002.7	1503.7	0.914
298.15 K, m1 = 0.05646	1003.91	1505	0.918
298.15 K, m1 = 0.06717	1005.17	1506.5	0.924
298.15 K, m1 = 0.0777	1006.38	1507.8	0.928
298.15 K, m1 = 0.08857	1007.62	1509.2	0.933
298.15 K, m1 = 0.09671	1008.51	1510.2	0.936
303.15 K, m1 = 0.03341	999.742	1514.4	0.815
303.15 K, m1 = 0.04614	1001.27	1515.9	0.821
303.15 K, m1 = 0.05646	1002.47	1517.1	0.825
303.15 K, m1 = 0.06717	1003.73	1518.5	0.83
303.15 K, m1 = 0.0777	1004.93	1519.8	0.835
303.15 K, m1 = 0.08857	1006.16	1520.9	0.839
303.15 K, m1 = 0.09671	1007.05	1521.8	0.843
308.15 K, m1 = 0.03341	998.108	1523.7	0.737
308.15 K, m1 = 0.04614	999.627	1525.1	0.741
308.15 K, m1 = 0.05646	1000.83	1526.4	0.747
308.15 K, m1 = 0.06717	1002.07	1527.4	0.752
308.15 K, m1 = 0.0777	1003.27	1528.7	0.757
308.15 K, m1 = 0.08857	1004.5	1529.9	0.762
308.15 K, m1 = 0.09671	1005.38	1530.7	0.766
313.15 K, m1 = 0.03341	996.275	1533.2	0.67
313.15 K, m1 = 0.04614	997.783	1534.3	0.676
313.15 K, m1 = 0.05646	998.981	1535.4	0.681
313.15 K, m1 = 0.06717	1000.22	1536.5	0.685
313.15 K, m1 = 0.0777	1001.41	1537.5	0.689
313.15 K, m1 = 0.08857	1002.64	1538.6	0.694
313.15 K, m1 = 0.09671	1003.53	1539.4	0.697

C[n+]1ccn(CCCCn2cc[n+](C)c2)c1.[Br-].[Br-] + O
Conditions	mass density [kg/m3]	speed of sound [m/s]	viscosity [mPa·s]
293.15 K, m1 = 0.04944	1004.66	1489.8	1.026
293.15 K, m1 = 0.06711	1006.89	1492	1.034
293.15 K, m1 = 0.07912	1008.4	1493.5	1.039
293.15 K, m1 = 0.0927	1010.06	1495.1	1.044
293.15 K, m1 = 0.1021	1011.22	1496.2	1.049
298.15 K, m1 = 0.04944	1003.45	1503.2	0.914
298.15 K, m1 = 0.06711	1005.68	1505.2	0.921
298.15 K, m1 = 0.07912	1007.18	1506.6	0.926
298.15 K, m1 = 0.0927	1008.82	1508	0.931
298.15 K, m1 = 0.1021	1009.97	1509	0.935
303.15 K, m1 = 0.04944	1002.01	1515.4	0.821
303.15 K, m1 = 0.06711	1004.22	1517.1	0.828
303.15 K, m1 = 0.07912	1005.71	1518.5	0.833
303.15 K, m1 = 0.0927	1007.35	1519.8	0.839
303.15 K, m1 = 0.1021	1008.49	1520.7	0.842
308.15 K, m1 = 0.04944	1000.35	1524.7	0.744
308.15 K, m1 = 0.06711	1002.54	1526.3	0.751
308.15 K, m1 = 0.07912	1004.03	1527.3	0.756
308.15 K, m1 = 0.0927	1005.67	1528.9	0.762
308.15 K, m1 = 0.1021	1006.8	1529.5	0.765
313.15 K, m1 = 0.04944	998.497	1534.1	0.677
313.15 K, m1 = 0.06711	1000.68	1535.5	0.683
313.15 K, m1 = 0.07912	1002.15	1536.5	0.688
313.15 K, m1 = 0.0927	1003.79	1537.8	0.692
313.15 K, m1 = 0.1021	1004.91	1538.5	0.696

C[n+]1ccn(CCCn2cc[n+](C)c2)c1.[Br-].[Br-] [1,3-bis[3-methylimidazolium-1-yl]propane dibromide] + O
Conditions	mass density [kg/m3]	speed of sound [m/s]	viscosity [mPa·s]
293.15 K, m1 = 0.03423	1002.81	1486.3	1.019
293.15 K, m1 = 0.04998	1004.86	1488.1	1.025
293.15 K, m1 = 0.06131	1006.3	1489.3	1.029
293.15 K, m1 = 0.07119	1007.55	1490.3	1.033
293.15 K, m1 = 0.08049	1008.72	1491.3	1.037
293.15 K, m1 = 0.089	1009.76	1492.2	1.04
293.15 K, m1 = 0.09492	1010.48	1492.8	1.042
298.15 K, m1 = 0.03423	1001.61	1499.9	0.906
298.15 K, m1 = 0.04998	1003.65	1501.6	0.912
298.15 K, m1 = 0.06131	1005.1	1502.6	0.917
298.15 K, m1 = 0.07119	1006.34	1503.5	0.921
298.15 K, m1 = 0.08049	1007.49	1504.6	0.924
298.15 K, m1 = 0.089	1008.53	1505.4	0.927
298.15 K, m1 = 0.09492	1009.24	1505.8	0.929
303.15 K, m1 = 0.03423	1000.19	1512.3	0.814
303.15 K, m1 = 0.04998	1002.22	1513.9	0.82
303.15 K, m1 = 0.06131	1003.66	1514.9	0.824
303.15 K, m1 = 0.07119	1004.89	1515.8	0.828
303.15 K, m1 = 0.08049	1006.04	1516.6	0.831
303.15 K, m1 = 0.089	1007.06	1517.5	0.835
303.15 K, m1 = 0.09492	1007.78	1518	0.838
308.15 K, m1 = 0.03423	998.558	1521.8	0.737
308.15 K, m1 = 0.04998	1000.57	1523.2	0.743
308.15 K, m1 = 0.06131	1002.01	1524	0.747
308.15 K, m1 = 0.07119	1003.23	1524.8	0.751
308.15 K, m1 = 0.08049	1004.38	1525.7	0.755
308.15 K, m1 = 0.089	1005.39	1526.4	0.758
308.15 K, m1 = 0.09492	1006.11	1526.8	0.76
313.15 K, m1 = 0.03423	996.725	1531.6	0.675
313.15 K, m1 = 0.04998	998.73	1532.7	0.679
313.15 K, m1 = 0.06131	1000.15	1533.5	0.683
313.15 K, m1 = 0.07119	1001.38	1534.1	0.689
313.15 K, m1 = 0.08049	1002.51	1534.8	0.686
313.15 K, m1 = 0.089	1003.53	1535.5	0.689
313.15 K, m1 = 0.09492	1004.24	1535.8	0.691
